Columns and labels:
[1] = Solubility observed when preparing NMR samples (solvent screen); assay type: physicochemical; settings: for Dissolution of the sample in 250 μL of CD3OD: ~4.3 mg (4, CD3OD+TMS) or 3.8 mg (6) in 250 μL
Method: Isolation Procedure. Fractions collected during the final pre-concentration step were filtered through a stainless steel sieve and concentrated in vacuo using a Buchi® Rotary Evaporator, Model R-114. The concentrated solution was dried for 48-72 h using the Kinetics Flexi-Dry Personal Freeze Dryer, followed by vacuum oven drying at 37° C. for 24 h to remove residual moisture. MS and MS/MS. MS and MS/MS data were generated with a Waters QTof Micro mass spectrometer equipped with an electrospray ionization source. The sample was analyzed by negative ESI. The sample was diluted to a concentration of 0.1 mg/mL with H2O:MeCN (1:1) and introduced via flow injection for MS data acquisition, tuned for MS/MS and acquired by direct infusion. NMR. […] The ^1H, COSY, HSQC-DEPT and NOESY NMR data were acquired on Bruker Avance 500 MHz instruments with either a 2.5 mm inverse probe or a 5 mm broad band probe. The ^13C and HMBC NMR data were acquired at the Rensselaer Polytechnic Institute using their Bruker Avance 600 MHz instrument with a 5 mm cryo-probe. The ^1H and ^13C NMR spectra were referenced to the TMS resonance at δH 0.00 ppm and CD3OD resonance at 49.0 ppm, respectively. […] The sample was recovered and blown dry under nitrogen or lyophilized between each solvent screen]. Results and Discussion Unless otherwise noted, all solvent ratios are listed as percent by volume (v/v). Primary Purification. Approximately 300 g of Lot #CB-2977-171 was processed using the primary preparative HPLC method described above. […] Fraction 3 (Lot #JAM-D-10-3) contained the target of interest. Secondary Purification. Lot #JAM-D-10-3 (and equivalent lots) was reprocessed with conditions summarized above. […] Tertiary Purification. Fraction Lot #JAM-D-40-2 was reprocessed with conditions summarized above. Fractions with low level m/z 1776 targets were collected as CJP-C-128 (3, 4, 5, 7). These fractions were subsequently pooled to enhance signal strength for additional processing. Quaternary Purification. Fraction Lot #CJP-C-128 (3, 4, 5, 7) (and equivalent lots) were reprocessed with conditions summarized above. Fraction 1, Lot #CJP-C-130(1), was isolated for additional processing. Quinary Purification. Fraction Lot #CJP-C-130(1) (and equivalent lots) were reprocessed with conditions summarized above. Fraction 9, Lot #CJP-C-133(9), was isolated. […] Secondary Purification. Fraction Lot #CJP-C-133(9) was reprocessed with conditions summarized above. Final Batch Preparation. The purified solution was filtered through a stainless steel sieve to remove particulates. The solution was then concentrated by rotary evaporation and lyophilized for about 72 h. The final batch (4.3 mg), was isolated with >99% (AUC, CAD) purity. Mass Spectrometry. […]

panelists = assay: Sensory evaluation of 1 and 3 (single sip protocol, taste panel); assay type: in vivo, human; settings: 400 ppm in water, 4° C.; for Bitter Aftertaste Intensity / Sweet Linter Intensity / Other Intensity / Overall Max Bitterness Intensity / Overall Max Sweetness Intensity / Bitter Intensity (In mouth) / Sweet Intensity (In mouth): mean score; for Bitter Aftertaste Intensity / Sweet Linter Intensity: 1 minute after tasting; for Other Intensity: any aromatic other than sweet and bitter or mouthfeel; for Overall Max Bitterness Intensity / Overall Max Sweetness Intensity: up to 1 minute
Method: Samples were prepared as described in Table 1. All samples were served at 4° C.
Samples were evaluated using a single sip protocol as follows: • Samples were served at approximately 4° C. • Panelists were instructed to take 1 sip of the sample, hold in mouth for 5 seconds, expectorate comfortable with this), and rate the given attributes • A 5 minute break was placed between each sample and panelists were instructed to cleanse their palates with at least 1 bite of unsalted cracker and 2 sips of filtered water • Due to limited sample quantities, panelists were given the following amounts to test: • a 3 vs Reb M: 1.5 mL • 1 vs Reb M: 5 mL • Samples were randomized within each session for each panelist • All samples were presented in replicate in each session Samples were evaluated for: • Sweet taste intensity: maximum level of sweetness in mouth during 5 seconds • Bitter taste intensity: maximum level of bitterness in mouth during 5 seconds • Overall maximum sweet intensity: maximum sweet intensity experienced from the time the sip is taken up to 1 minute • Overall maximum bitter intensity: maximum […] intensity experienced from the time the sip is taken up to 1 minute • Other intensity: Intensity of any aromatic other than sweet and bitter (metallic, plastic, licorice, etc.) or mouthfeel/sensation • Sweet linger intensity: sweet intensity 1 minute after tasting the sample • Bitter aftertaste intensity: bitter intensity 1 minute after tasting the sample Data Analysis. A 3-way ANOVA was used to compare the sweeteners for each attribute, for 1 only, and significance was determined at p<0.05. Fishers's LSD was used to determine significant differences between mean scores.

[2] = 3 vs Reb M session, 1.5 mL sip, N=3
[3] = 1 vs Reb M session, 5 mL sip, N=6

Solubility in solvent screen ([1]; pyridine-d5+TMS (~4 mg/170 μL), D2O+TSP (~4 mg/170 μL), DMSO-d6+TMS) | Dissolution of the sample in 250 μL of CD3OD [1] | Soluble portion of the sample in CD3OD+TMS ([1]; ~4.3 mg of sample in 250 μL of CD3OD+TMS) [mg/250 μL] | Compound | Overall Max Sweetness compared to Reb M (panelists) | Sweet Intensity in Mouth compared to Reb M (panelists) | Sweet Linger Intensity compared to Reb M (panelists) | Bitter Aftertaste Intensity (panelists; [2]) | Sweet Linter Intensity (panelists; [2]) | Other Intensity (panelists; [2]) | Overall Max Bitterness Intensity (panelists; [2]) | Overall Max Sweetness Intensity (panelists; [2]) | Bitter Intensity (In mouth) (panelists; [2]) | Sweet Intensity (In mouth) (panelists; [2]) | Bitter Aftertaste Intensity (panelists; [3]) | Sweet Linter Intensity (panelists; [3]) | Other Intensity (panelists; [3]) | Overall Max Bitterness Intensity (panelists; [3]) | Overall Max Sweetness Intensity (panelists; [3]) | Bitter Intensity (In mouth) (panelists; [3]) | Sweet Intensity (In mouth) (panelists; [3])
very poor solubility | did not dissolve readily | ~1.5 | C=C1C[C@@]23CC[C@H]4[C@@](C)(CCC[C@@]4(C)C(=O)OC4OC(CO)C(O)C(OC5OC(CO)C(O)C(O)C5O)C4OC4OC(CO)C(O)C(OC5OC(CO)C(O)C(OC6OC(CO)C(O)C(O)C6O)C5OC5OC(CO)C(O)C(O)C5O)C4O)[C@@H]2CCC1(OC1OC(CO)C(O)C(OC2OC(CO)C(O)C(O)C2O)C1OC1OC(CO)C(O)C(O)C1O)C3 (stereo partly shown) [diterpene glycoside 4] | – | – | – | – | – | – | – | – | – | – | – | – | – | – | – | – | –
– | – | – | C=C1C[C@@]23CC[C@H]4[C@@](C)(CCC[C@@]4(C)C(=O)OC4OC(COC5OC(CO)C(O)C(OC6OC(CO)C(O)C(O)C6O)C5OC5OC(CO)C(O)C(O)C5O)C(O)C(OC5OC(CO)C(O)C(O)C5O)C4OC4OC(CO)C(O)C(O)C4O)[C@@H]2CCC1(OC1OC(CO)C(O)C(OC2OC(CO)C(O)C(O)C2O)C1OC1OC(CO)C(O)C(O)C1O)C3 (stereo partly drawn) [diterpene glycoside 3, (13-[(2-O-β-D-glucopyranosyl-3-O-β-D-glucopyranosyl)-β-D-glucopyranosyl)oxy] ent-kaur-16-en-19-oic acid-[(2-O-β-D-glucopyranosyl-3-O-β-D-glucopyranosyl-6-O-α-D-glucopyranosyl-(2-O-β-D-glucopyranosyl-3-O-β-D-glucopyranosyl)-β-D-glucopyranosyl) ester]] | slightly lower | slightly lower | significantly less | 0.3 | 0.9 | 0.5 | 1.3 | 5.6 | 0.3 | 5.4 | – | – | – | – | – | – | –
– | – | – | C=C1C[C@@]23CC[C@H]4[C@@](C)(CCC[C@@]4(C)C(=O)O[C@@H]4O[C@H](CO)[C@@H](O)[C@H](O[C@@H]5O[C@H](CO)[C@@H](O)[C@H](O)[C@H]5O)[C@H]4O[C@@H]4O[C@H](CO)[C@@H](O)[C@H](O)[C@H]4O)[C@@H]2CC[C@]1(O[C@@H]1O[C@H](CO)[C@@H](O)[C@H](O[C@@H]2O[C@H](CO)[C@@H](O)[C@H](O)[C@H]2O)[C@H]1O[C@@H]1O[C@H](CO)[C@@H](O)[C@H](O)[C@H]1O)C3 [Reb M, rebaudioside M, reference compound] | – | – | – | 0.3 | 2.5 | 0.3 | 1.4 | 6.3 | 0.4 | 7.4 | 0.5 | 3.6 | 0.8 | 0.8 | 8.4 | 0.7 | 7.8
– | – | – | C=C1C[C@@]23CC[C@H]4[C@@](C)(CCC[C@@]4(C)C(=O)OC4OC(CO)C(O)C(OC5OC(CO)C(O)C(O)C5O)C4OC4OC(CO)C(O)C(O)C4O)[C@@H]2CCC1(OC1OC(CO)C(O)C(OC2OC(CO)C(O)C(O)C2O)C1OC1OC(COC2OC(CO)C(O)C(OC4OC(CO)C(O)C(O)C4O)C2OC2OC(CO)C(O)C(O)C2O)C(O)C(O)C1O)C3 (stereo partly shown) [diterpene glycoside 1] | significantly lower | significantly lower | significantly lower | – | – | – | – | – | – | – | 0.8 | 0.0 | 1 | 0.8 | 1.1 | 0.7 | –
– | did not dissolve completely | – | C=C1C[C@@]23CC[C@H]4[C@@](C)(CCC[C@@]4(C)C(=O)OC4OC(CO)C(O)C(OC5OC(CO)C(O)C(O)C5O)C4OC4OC(COC5OC(CO)C(O)C(OC6OC(CO)C(O)C(O)C6O)C5OC5OC(CO)C(O)C(O)C5O)C(O)C(O)C4O)[C@@H]2CCC1(OC1OC(CO)C(O)C(OC2OC(CO)C(O)C(O)C2O)C1OC1OC(CO)C(O)C(O)C1O)C3 (stereo partly drawn) [diterpene glycoside 6, (13-[(2-O-β-D-glucopyranosyl-3-O-β-D-glucopyranosyl)-β-D-glucopyranosyl)oxy] ent-kaur-16-en-19-oic acid-[(2-O-β-D-glucopyranosyl-(6-O-α-D-glucopyranosyl-(2-O-β-D-glucopyranosyl-3-O-β-D-glucopyranosyl)-3-O-β-D-glucopyranosyl)-β-D-glucopyranosyl) ester]] | – | – | – | – | – | – | – | – | – | – | – | – | – | – | – | – | –

Source: patent publication US11584769B2, “Diterpene glycosides, compositions and purification methods” (The Coca-Cola Company, priority 2014, dated 2023)
